This is an account of results in article PMC9140012, “Epigenetic-Like Stimulation of Receptor Expression in SSTR2 Transfected HEK293 Cells as a New Therapeutic Strategy” (Cancers, 2022).

For test [1], the system named is relapsed or refractory neuroblastoma. The arrangement: method as in PMID 34270348. The conditions noted are these: I-131-MIBG in combination with vorinostat, phase II; cited from earlier work. From the text: An overview of studies investigating the synergistic improvement of cancer therapy using HDACi in clinical trials is given by Hontecillas-Prieto et al..
The subject of test [2] is cell lines HEKsst2 and PC3. The test can be described thus: IC20/IC40 of single epidrugs by colony formation assay, HEKsst2 and PC3. Type of test: cell-based. The procedure:
(§1) HEKsst2 and PC3 were plated in T75 flasks on day zero. […] Cells were incubated in DMEM (HEKsst2) or an RPMI 1640 (PC3) nutrient-deficient medium (lacking medium additives and FCS) until day three at 37 °C. For a further two days, HEKsst2 and PC3 were incubated in a full medium (with medium additives and FCS). On day five, cells were trypsinized and plated for the CFAs.
(§2) To determine the radiosensitivity and radiotoxicity, the clonogene cell survival was analyzed. Colony formation assays were performed as described earlier. The following steps have been done for each of the treatment procedures. Briefly, after detaching the treated cells, an aliquot of the cell suspension per dose point was distributed in T25 culture flasks for the colony formation test and is placed in an incubator for 7 (HEKsst2) or 10 days (PC3). To stop colony formation, the cells were fixed with ethanol 80% (v/v) followed by staining with crystal violet solution. The colony counting was carried out under a microscope (25× magnification). Colonies of more than 50 cells were scored as survivors. The plating efficiency (PE) and the survival rate (survival fraction SF) were calculated for irradiated and unirradiated cells based on the number of seeded cells.
To determine the Bmax values and the Kd, the GraphPad Prism 9.0 software was used. Confidence Intervals (CI) express a 95% likelihood of the nonlinear fit.

Test [3] deals with PC3. In words: Chemotoxicity, colony formation assay (CFA), PC3. Type of test: cell-based, human. Particulars: for Survival Fraction: day one to three in deficient RPMI 1640, 2 days full medium, CFA, ± SD; for IC50: Homo sapiens, PC-3. The procedure: (§3) HEK293 cells were obtained from the German Resource Center for Biological Material (DSMZ, Braunschweig, Germany) and grown in Dulbecco’s modified Eagle´s medium supplemented with 10% fetal calf serum (FCS) in a humidified atmosphere containing 5% CO2. Cells were transfected with plasmid, encoding murine HA-tagged SSTR2 receptors using lipofectamine according to the manufacturing instructions (Thermofisher, Darmstadt, Germany). Stable transfectants were selected in the presence of 500 µg/mL G-418 and characterized using radioligand binding assays, Western blot analyses, surface ELISA assays and immunocytochemistry as described previously. Non-transfected HEK293 cells were maintained under equal conditions as HEKsst2 except for the addition of G-418. In the following, HEK293 cells and SSTR2 transfected HEK293 cells are termed as HEK and HEKsst2, respectively. The human prostate carcinoma cell line PC3 (ATCC®, Manassas, VA, USA) was cultured in a RPMI medium with 10% (v/v) FCS and 1% (v/v) non-essential amino acids (NEA). […] The culture medium of each cell line was renewed every 2–3 days. Via a PCR test, each cell line is proven to be free of mycoplasmas.
as §1
as §2, with “The following steps have been done for each of the treatment procedures.” left out
(§4) To examine the statistical significance, an unpaired student’s t-test was used. A difference between two independent samples is significant if the probability of error p ≤ 0.05. For the statistical evaluation, MS Office Excel was used. […]

The test system of test [4] is HEKsst2. In words: Chemotoxicity, colony formation assay (CFA), HEKsst2. It is filed as cell-based. Particulars: for IC50: read-out: half maximum inhibitor concentrations (IC50). The procedure:
as §3, §1
as §2, with “The following steps have been done for each of the treatment procedures.” left out
as §4

Test [5] relates to PC3. Particulars: PC3 compared to HEKsst2; cited from earlier work. From the text:
The radiosensitivity expressed as SF after external X-ray irradiation is similar for the cell lines HEKsst2 and PC3 (Figure 4). […] One exception is the dose point at 0.6 Gy X-rays for not stimulated vs. stimulated PC3 cells. […] Whereas the radiosensitivity of non-stimulated HEK ...

In test [6] the test system is Neuroendocrine Tumor Cells. The arrangement: method as in PMID 30796167. The conditions noted are these: 5-fluorouracil in combination with decitabine or tacedinaline; cited from earlier work.
Details of test [7]: method as in PMID 25600060. Particulars: fractionated external radiation; cited from earlier work.

Where a name gives a salt, the structure may show the parent alone. Read-outs that look alike come from different tables or passages of the source.

As a reminder, the IC20 is the point of the concentration-response curve where the effect stands at 20%. Read a high IC20 as a need for much substance.

Take `O=C(CCCCCCC(=O)Nc1ccccc1)NO` [vorinostat]: the radiation sensitizing result in test [1] was “beneficial radiation sensitizing properties”.

Compound `Nc1ncn([C@H]2C[C@H](O)[C@@H](CO)O2)c(=O)n1` [5-aza-dC, 5-aza-2′-deoxycytidine] yielded an IC20 in test [2] (5-aza-dC, value used for both HEKsst2 and PC3, CFA) of 0.25 µM. Besides, the “Survival Fraction” value in test [3] (0.01 µM 5-aza-dC) was determined as 67.1 ± 3.3%; in test [3] (0.05 µM 5-aza-dC), 52.1 ± 19.0%; in test [3] (0.1 µM 5-aza-dC) it was 69.4 ± 2.1%; in test [3] (0.5 µM 5-aza-dC), 41.6 ± 1.8%; in test [3] (1.0 µM 5-aza-dC) it was 24.9 ± 2.0%; in test [3] (5.0 µM 5-aza-dC), 27.5 ± 3.2%. Besides, the “Survival Fraction” value in test [3] (10 µM 5-aza-dC) was determined as 9.4 ± 0.3%; in test [3] (25 µM 5-aza-dC), 1.9 ± 0.02%; in test [4] (0.01 µM 5-aza-dC, added day one to day three in nutrient-deficient DMEM, then 2 days full medium, CFA day five, mean ± SD, three independent trials in triplicate), 97.9 ± 1.8%; in test [4] (0.05 µM 5-aza-dC, day one to three in deficient medium, 2 days full medium, CFA, ± SD), 118.0 ± 31%; in test [4] (0.1 µM 5-aza-dC, day one to three in deficient medium, 2 days full medium, CFA, ± SD), 83.2 ± 4.8%; in test [4] (0.5 µM 5-aza-dC, day one to three in deficient medium, 2 days full medium, CFA, ± SD), 96.6 ± 13.2%. In addition, the “Survival Fraction” value turned out to be 93.7 ± 1.3% in test [4] (1.0 µM 5-aza-dC, day one to three in deficient medium, 2 days full medium, CFA, ± SD); 42.3 ± 4.8% in test [4] (5.0 µM 5-aza-dC, day one to three in deficient medium, 2 days full medium, CFA, ± SD); 18.6 ± 0.8% in test [4] (10 µM 5-aza-dC, day one to three in deficient medium, 2 days full medium, CFA, ± SD); 1.7 ± 0.4% in test [4] (25 µM 5-aza-dC, day one to three in deficient medium, 2 days full medium, CFA, ± SD). The IC50 in test [3] was found to be 0.3 µM; in test [4] (5-aza-dC as single epidrug, HEKsst2, CFA), 3.9 µM. The “survival of 5-aza-dC treated cells” value in test [5] is given as “lower survival”.

With `O=c1[nH]cc(F)c(=O)[nH]1` [5-fluorouracil], in test [6], the radiosensitization result was “significant effects on radiosensitization”.

`CCCC(CCC)C(=O)O` [VPA, valproic acid sodium salt] registered an IC20 in test [2] of 600 µM. In test [2] (VPA, value used for both HEKsst2 and PC3, CFA), this compound returned an IC40 of 1000 µM. Besides, the Survival Fraction in test [3] (0.1 mM VPA) came to 95.6 ± 4.5%; in test [3] (0.5 mM VPA), 95.6 ± 2.3%; in test [3] (1.0 mM VPA), 72.6 ± 11.6%; in test [3] (2.5 mM VPA), 69.4 ± 6.0%; in test [3] (5.0 mM VPA), 35.1 ± 4.6%; in test [3] (10 mM VPA), 24.0 ± 1.2%. Also, the Survival Fraction was 1.2 ± 1.1% in test [3] (25 mM VPA); 1.7 ± 1.1% in test [3] (50 mM VPA); 78.7 ± 10.8% in test [4] (0.5 mM VPA, day one to three in deficient medium, 2 days full medium, CFA, ± SD); 67.5 ± 15.9% in test [4] (1.0 mM VPA, day one to three in deficient medium, 2 days full medium, CFA, ± SD); 18.5 ± 2.2% in test [4] (2.5 mM VPA, day one to three in deficient medium, 2 days full medium, CFA, ± SD); 21.0 ± 5.1% in test [4] (5.0 mM VPA, day one to three in deficient medium, 2 days full medium, CFA, ± SD). Besides, the Survival Fraction in test [4] (10 mM VPA, day one to three in deficient medium, 2 days full medium, CFA, ± SD) amounted to 53.5 ± 5.8%; in test [4] (25 mM VPA, day one to three in deficient medium, 2 days full medium, CFA, ± SD), 8.0 ± 0.8%. In addition, the IC50 stood at 3900 µM in test [3] (read-out: IC50) and 1850 µM in test [4]. Also, the radiosensitization result in test [7] is “radiosensitization effect”.
